In PubChem BioAssay AID1259411 (Chemical Carcinogenesis Research Information System (CCRIS), 2018):
Activity calls are given as the source filed them. The rule behind the calls is not given here.

System: rodent carcinogenicity bioassays, tumor incidence
Test: CCRIS carcinogenicity studies
Method in brief: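 NCI-built, expert-reviewed records of carcinogenicity and related test outcomes (mutagenicity, tumor promotion/inhibition) compiled from published and report sources, historical span 1985-2011, not updated.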

Cc1ccc(N)cc1Cl
carcinogen call (Species: MOUSE, Strain/Sex: B6C3F1/FEMALE, Route: ORAL, Dose: 0, 300, 600 PPM IN DIET, Dose: 0, 300, 600 PPM IN DIET): inactive; negative
carcinogen call (Species: MOUSE, Strain/Sex: B6C3F1/MALE, Route: ORAL, Dose: 0, 600, 1200 PPM IN DIET, Dose: 0, 600, 1200 PPM IN DIET): inactive; negative
carcinogen call (Species: RAT, Strain/Sex: F344/FEMALE, Route: ORAL, Dose: 0, 1635, 3269 PPM IN DIET, TWA, Dose: 0, 1635, 3269 PPM IN DIET, TWA): inactive; negative
carcinogen call (Species: RAT, Strain/Sex: F344/MALE, Route: ORAL, Dose: 0, 1635, 3269 PPM IN DIET, TWA, Dose: 0, 1635, 3269 PPM IN DIET, TWA): inactive; negative

Clc1cc2c(c(Cl)c1Cl)Oc1cc(Cl)c(Cl)c(Cl)c1O2
carcinogen call (Species: MOUSE, Strain/Sex: B6C3F1/FEMALE, Route: GAVAGE, Dose: 0, 2.5, 5.0, 10.0 UG/KG/WK (9:1 CORN OIL-ACETONE, 2 D/WK) FOR 104 WK (STUDY DURATION: 105-108 WK), Dose: 0, 2.5, 5.0, 10.0 UG/KG/WK (9:1 CORN OIL-ACETONE, 2 D/WK) FOR 104 WK (STUDY DURATION: 105-108 WK), Tumor Site: Type of Lesion: LIVER: HEPATOCELLULAR ADENOMA OR CARCINOMA): active; positive
carcinogen call (Species: MOUSE, Strain/Sex: B6C3F1/MALE, Route: GAVAGE, Dose: 0, 1.25, 2.5, 5 UG/KG/WK (9:1 CORN OIL-ACETONE, 2 D/WK) FOR 104 WK (STUDY DURATION: 105-108 WK), Dose: 0, 1.25, 2.5, 5 UG/KG/WK (9:1 CORN OIL-ACETONE, 2 D/WK) FOR 104 WK (STUDY DURATION: 105-108 WK), Tumor Site: Type of Lesion: LIVER: HEPATOCELLULAR ADENOMA, CARCINOMA): active; positive
carcinogen call (Species: MOUSE, Strain/Sex: SWISS/FEMALE, Route: DERMAL, Dose: 0, 0.01 UG (SUSPENDED IN 0.1 ML ACETONE APPLIED 3 DAYS/WK)): inactive; negative
carcinogen call (Species: MOUSE, Strain/Sex: SWISS/MALE, Route: DERMAL, Dose: 0, 0.01 UG (SUSPENDED IN 0.1 ML ACETONE APPLIED 3 DAYS/WK)): inactive; negative
carcinogen call (Species: RAT, Strain/Sex: OSBORNE-MENDEL/FEMALE, Route: GAVAGE, Dose: 0, 1.25, 2.5, 5 UG/KG/WK (9:1 CORN OIL-ACETONE, 2 D/WK) FOR 104 WK (STUDY DURATION: 105-108 WK), Dose: 0, 1.25, 2.5, 5 UG/KG/WK (9:1 CORN OIL-ACETONE, 2 D/WK) FOR 104 WK (STUDY DURATION: 105-108 WK), Tumor Site: Type of Lesion: LIVER: NEOPLASTIC NODULE, HEPATOCELLULAR CARCINOMA): active; positive
carcinogen call (Species: RAT, Strain/Sex: OSBORNE-MENDEL/MALE, Route: GAVAGE, Dose: 0, 1.25, 2.5, 5 UG/KG/WK (9:1 CORN OIL-ACETONE, 2 D/WK) FOR 104 WK (STUDY DURATION: 105-108 WK), Dose: 0, 1.25, 2.5, 5 UG/KG/WK (9:1 CORN OIL-ACETONE, 2 D/WK) FOR 104 WK (STUDY DURATION: 105-108 WK), Tumor Site: Type of Lesion: LIVER: NEOPLASTIC NODULE, HEPATOCELLULAR CARCINOMA): equivocal

CCCCCCOc1cc2c(c3ccc4ccccc4c13)CCC2=O
carcinogen call (Species: MOUSE, Strain/Sex: TO/MALE, FEMALE, Route: DERMAL, Dose: 0, 50 UG (10 µL OF A 0.5% W/V TOLUENE SOLUTION) 2/WK FOR 70 WK (STUDY DURATION: 70 WK)): inactive; negative

O=c1[nH]c(=O)n(O)c2nc[nH]c12
carcinogen call (Species: RAT, Strain/Sex: SPRAGUE-DAWLEY/FEMALE, Route: SUBCUTANEOUS, Dose: 3-7 MG/SUSPENDED IN CARBOXYMETHYLCELLULOSE IN SALINE 1/WK FOR 22-26 WK, Tumor Site: Type of Lesion: INJECTION SITE, LIVER: HYPERPLASTIC NODULE OR HEPATOMA): active; positive
carcinogen call (Species: RAT, Strain/Sex: SPRAGUE-DAWLEY/MALE, Route: SUBCUTANEOUS, Dose: 0, 0.1, 1.0 MG IN CARBOXYMETHYLCELLULOSE 3/WK FOR 8 WK, Dose: 0, 0.1, 1.0 MG IN CARBOXYMETHYLCELLULOSE 3/WK FOR 8 WK, Tumor Site: Type of Lesion: INJECTION SITE: SARCOMA, FIBROMA): active; positive
carcinogen call (Species: RAT, Strain/Sex: WISTAR/MALE, FEMALE, Route: SUBCUTANEOUS, Dose: 3-7 MG/SUSPENDED IN CARBOXYMETHYLCELLULOSE IN SALINE 1/WK FOR 22-26 WK, Tumor Site: Type of Lesion: INJECTION SITE, LIVER: HYPERPLASTIC NODULE OR HEPATOMA): active; positive
carcinogen call (Species: RAT, Strain/Sex: WISTAR/MALE, Route: ORAL, Dose: 7 MG IN CARBOXYMETHYLCELLULOSE IN SALINE 1/WK FOR 22 WK, Tumor Site: Type of Lesion: LIVER): active; positive
carcinogen call (Species: RAT, Strain/Sex: WISTAR/MALE, Route: SUBCUTANEOUS, Dose: 0, 0.1, 1.0 MG IN CARBOXYMETHYLCELLULOSE 3/WK FOR 8 WK, Dose: 0, 0.1, 1.0 MG IN CARBOXYMETHYLCELLULOSE 3/WK FOR 8 WK, Tumor Site: Type of Lesion: INJECTION SITE: SARCOMA, FIBROMA): active; positive

Nc1ccc2cc3ccccc3cc2c1
carcinogen call (Species: HAMSTER, Strain/Sex: SYRIAN, Route: DERMAL, Dose: 4 DROPS OF 1% SOLN IN ACETONE 2/WK FOR 10 WK, 8 DROPS FOR 40 WK, 4 DROPS FOR 5 WK, Tumor Site: Type of Lesion: INTEGUMENTARY SYSTEM (SKIN): PAPILLOMA, EPIDERMAL TUMOR): active; positive
carcinogen call (Species: MOUSE, Strain/Sex: MALE,FEMALE, Route: DERMAL, Dose: 1% SATURATED SOLN IN ACETONE 2/WK (0.025 ML FOR 30 D OR 0.1 ML FOR 140 D), THEN 0.05 ML THEREAFTER, Tumor Site: Type of Lesion: INTEGUMENTARY SYSTEM (SKIN): SQUAMOUS CELL EPITHELIOMA): active; positive
carcinogen call (Species: RAT, Strain/Sex: ALBINO/MALE, Route: DERMAL, Dose: 1% IN ACETONE 2/WK FOR 34-36 WK, Tumor Site: Type of Lesion: INTEGUMENTARY SYSTEM (SKIN): SQUAMOUS CELL CARCINOMA, BASAL CELL EPITHELIOMA, FIBROSARCOMA): active; positive
carcinogen call (Species: RAT, Strain/Sex: F344/MALE,FEMALE, Route: DERMAL, Dose: 0.18 ML OF 1% SOLN IN ACETONE 2/WK FOR 180 OR 250-300 D, Tumor Site: Type of Lesion: INTEGUMENTARY SYSTEM (SKIN): SQUAMOUS CELL CARCINOMA, BASAL CELL EPITHELIOMA, FIBROSARCOMA): active; positive
carcinogen call (Species: RAT, Strain/Sex: HOLTZMAN/MALE,FEMALE, Route: DERMAL, Dose: 0.18 ML OF 1% SOLN IN ACETONE 2/WK FOR 180 OR 250-300 D, Tumor Site: Type of Lesion: INTEGUMENTARY SYSTEM (SKIN): SQUAMOUS CELL CARCINOMA, BASAL CELL EPITHELIOMA, FIBROSARCOMA): active; positive
carcinogen call (Species: RAT, Strain/Sex: LONG-EVANS/MALE,FEMALE, Route: DERMAL, Dose: 0.18 ML OF 1% SOLN IN ACETONE 2/WK FOR 180 OR 250-300 D, Tumor Site: Type of Lesion: INTEGUMENTARY SYSTEM (SKIN): SQUAMOUS CELL CARCINOMA, BASAL CELL EPITHELIOMA, FIBROSARCOMA): active; positive
carcinogen call (Species: RAT, Strain/Sex: SPRAGUE-DAWLEY/FEMALE, Route: GAVAGE, Dose: 0.05, 1.0, 2.5 MG IN 1 ML SESAME OIL 1/3 D FOR 10 D (TOTAL DOSE 0.5-25 MG), Dose: 0.05, 1.0, 2.5 MG IN 1 ML SESAME OIL 1/3 D FOR 10 D (TOTAL DOSE 0.5-25 MG), Tumor Site: Type of Lesion: MAMMARY GLAND): active; positive

O[C@H]1CCc2c(ccc3cc4ccc5ccccc5c4nc23)[C@@H]1O
carcinogen call (Species: MOUSE, Strain/Sex: CD-1/FEMALE, Route: INTRAPERITONEAL, Dose: 0, 175 NMOL (TOTAL DOSE) ADMINISTERED AS 1/7 OF DOSE WITHIN 24 HR AFTER BIRTH, 2/7 OF DOSE AT 8 D OLD, 4/7 OF DOSE AT 15): inactive; negative
carcinogen call (Species: MOUSE, Strain/Sex: CD-1/MALE, Route: INTRAPERITONEAL, Dose: 0, 175 NMOL (TOTAL DOSE) ADMINISTERED AS 1/7 OF DOSE WITHIN 24 HR AFTER BIRTH, 2/7 OF DOSE AT 8 D OLD, 4/7 OF DOSE AT 15): inactive; negative

COc1cc2c(c3oc(=O)c4c(c13)CCC4=O)[C@]1(O)C=CO[C@@H]1O2
carcinogen call (Species: FISH, Strain/Sex: RAINBOW TROUT, Route: ORAL, Dose: 0, 1.5, 7.5, UG/KG DIET FOR 5.5 MO (STUDY DURATION: 5.5 MO), Dose: 0, 1.5, 7.5, UG/KG DIET FOR 5.5 MO (STUDY DURATION: 5.5 MO), Tumor Site: Type of Lesion: LIVER: HEPATOMA): active; positive
carcinogen call (Species: RAT, Strain/Sex: F344/MALE, Route: ORAL, Dose: 0, 0.5, 5, 50 PPB IN AGAR BASED SEMISYNTHETIC DIET FOR STUDY DURATION (STUDY DURATION: 21 MO), Dose: 0, 0.5, 5, 50 PPB IN AGAR BASED SEMISYNTHETIC DIET FOR STUDY DURATION (STUDY DURATION: 21 MO), Tumor Site: Type of Lesion: LIVER: NEOPLASTIC NODULE, HEPATOCELLULAR CARCINOMA): active; positive
carcinogen call (Species: TROUT, Strain/Sex: MT. SHASTA RAINBOW, Route: ORAL, Dose: 4, 16, 32, 64 PPB IN DIET FOR 12 MO, Dose: 4, 16, 32, 64 PPB IN DIET FOR 12 MO, Tumor Site: Type of Lesion: LIVER: HEPATOMA): active; positive
